Consider two compounds from patent US11691972B2, “Compounds for targeted degradation of BRD9” (C4 Therapeutics, Inc., priority 2020, dated 2023).

Data set [1] has as its target T1, BRD9 (Homo sapiens, UniProt Q9H8M2).
T1 sequence (Q9H8M2 1-597): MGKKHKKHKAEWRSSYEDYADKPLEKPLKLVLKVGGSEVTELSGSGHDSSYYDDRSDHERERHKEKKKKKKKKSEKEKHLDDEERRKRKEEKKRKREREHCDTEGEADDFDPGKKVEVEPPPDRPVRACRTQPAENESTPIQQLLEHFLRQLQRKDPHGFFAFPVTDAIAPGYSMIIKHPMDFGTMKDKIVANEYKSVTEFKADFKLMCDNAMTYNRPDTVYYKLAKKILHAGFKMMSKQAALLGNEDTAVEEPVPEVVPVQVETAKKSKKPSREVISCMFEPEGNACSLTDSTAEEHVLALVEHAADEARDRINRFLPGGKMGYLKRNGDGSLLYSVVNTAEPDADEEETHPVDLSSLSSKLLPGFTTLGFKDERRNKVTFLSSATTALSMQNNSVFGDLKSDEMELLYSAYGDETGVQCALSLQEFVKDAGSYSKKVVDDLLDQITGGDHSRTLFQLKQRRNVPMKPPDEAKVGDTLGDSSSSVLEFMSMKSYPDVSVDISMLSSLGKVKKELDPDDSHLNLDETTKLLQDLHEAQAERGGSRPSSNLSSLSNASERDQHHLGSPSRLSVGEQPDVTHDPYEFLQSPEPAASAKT
Kind of data set: BRD9 binding (Ki).

In the next data set the target is CYP 1A2 (Homo sapiens, UniProt P05177). In words: CYP inhibition 1A2. It is filed as in vitro ADME.
Chain of CYP 1A2 (P05177 whole entry): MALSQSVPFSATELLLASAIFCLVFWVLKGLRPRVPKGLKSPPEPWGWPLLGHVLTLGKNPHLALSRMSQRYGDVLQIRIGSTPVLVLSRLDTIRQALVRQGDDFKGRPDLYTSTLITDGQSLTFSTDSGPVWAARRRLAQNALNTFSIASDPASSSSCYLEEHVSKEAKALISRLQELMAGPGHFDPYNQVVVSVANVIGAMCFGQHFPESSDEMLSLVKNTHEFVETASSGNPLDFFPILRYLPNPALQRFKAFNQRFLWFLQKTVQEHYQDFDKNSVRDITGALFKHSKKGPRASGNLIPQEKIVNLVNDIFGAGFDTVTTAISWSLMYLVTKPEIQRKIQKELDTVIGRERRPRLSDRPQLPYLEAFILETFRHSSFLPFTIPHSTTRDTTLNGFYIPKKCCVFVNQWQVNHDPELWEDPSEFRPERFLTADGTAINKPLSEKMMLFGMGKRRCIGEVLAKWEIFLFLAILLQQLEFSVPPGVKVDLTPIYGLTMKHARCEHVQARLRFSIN
In a further data set the target is CYP 2C19 (Homo sapiens, UniProt P33261). In words: CYP TDI (time-dependent inhibition). Type of data set: in vitro ADME.
Chain of CYP 2C19 (P33261 whole entry): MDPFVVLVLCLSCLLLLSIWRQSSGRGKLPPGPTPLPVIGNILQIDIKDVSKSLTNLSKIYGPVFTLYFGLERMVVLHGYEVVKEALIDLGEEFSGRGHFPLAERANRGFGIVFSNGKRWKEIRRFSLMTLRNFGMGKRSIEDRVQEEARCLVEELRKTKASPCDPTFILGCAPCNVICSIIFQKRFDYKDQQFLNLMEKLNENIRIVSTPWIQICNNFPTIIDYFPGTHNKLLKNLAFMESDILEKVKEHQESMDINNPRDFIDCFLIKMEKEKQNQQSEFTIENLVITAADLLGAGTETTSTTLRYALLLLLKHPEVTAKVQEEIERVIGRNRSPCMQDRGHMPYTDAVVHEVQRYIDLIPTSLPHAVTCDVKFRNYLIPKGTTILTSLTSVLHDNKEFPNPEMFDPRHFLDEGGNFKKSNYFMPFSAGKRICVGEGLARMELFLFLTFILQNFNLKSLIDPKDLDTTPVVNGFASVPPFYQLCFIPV
In the next data set the target is CYP 2C8 (Homo sapiens, UniProt P10632). Kind of data set: CYP inhibition 2C8. It is filed as in vitro ADME.
Chain of CYP 2C8 (P10632 whole entry): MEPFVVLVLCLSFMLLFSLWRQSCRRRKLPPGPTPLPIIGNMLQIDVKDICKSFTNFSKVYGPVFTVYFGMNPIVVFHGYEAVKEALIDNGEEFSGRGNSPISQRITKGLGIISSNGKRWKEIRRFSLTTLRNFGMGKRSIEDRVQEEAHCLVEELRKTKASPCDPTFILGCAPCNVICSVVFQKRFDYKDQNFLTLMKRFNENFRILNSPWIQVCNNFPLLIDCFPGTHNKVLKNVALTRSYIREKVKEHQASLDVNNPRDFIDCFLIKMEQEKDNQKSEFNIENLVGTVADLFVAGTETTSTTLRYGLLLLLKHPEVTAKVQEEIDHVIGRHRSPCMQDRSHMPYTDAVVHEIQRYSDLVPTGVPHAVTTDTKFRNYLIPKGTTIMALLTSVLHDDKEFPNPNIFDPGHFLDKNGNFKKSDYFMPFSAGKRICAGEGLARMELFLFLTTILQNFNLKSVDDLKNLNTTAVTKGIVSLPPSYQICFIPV
For data set [2], the target named is T1, BRD9. In words: In-vivo BRD9 degradation in the Aska-SS xenograft model. The conditions noted are these: various concentrations and times, FIG. 13.
Another data set concerns the target CYP 2C9 (Homo sapiens, UniProt P11712). Kind of data set: CYP inhibition 2C9. It is filed as in vitro ADME.
The target in data set [3] is BRD9 (Rattus norvegicus, UniProt D4ACF5). Kind of data set: BRD9 degradation in rat cells (24 h). It is filed as cell-based.
Chain of BRD9 (Rattus norvegicus, UniProt D4ACF5) (D4ACF5 1-761): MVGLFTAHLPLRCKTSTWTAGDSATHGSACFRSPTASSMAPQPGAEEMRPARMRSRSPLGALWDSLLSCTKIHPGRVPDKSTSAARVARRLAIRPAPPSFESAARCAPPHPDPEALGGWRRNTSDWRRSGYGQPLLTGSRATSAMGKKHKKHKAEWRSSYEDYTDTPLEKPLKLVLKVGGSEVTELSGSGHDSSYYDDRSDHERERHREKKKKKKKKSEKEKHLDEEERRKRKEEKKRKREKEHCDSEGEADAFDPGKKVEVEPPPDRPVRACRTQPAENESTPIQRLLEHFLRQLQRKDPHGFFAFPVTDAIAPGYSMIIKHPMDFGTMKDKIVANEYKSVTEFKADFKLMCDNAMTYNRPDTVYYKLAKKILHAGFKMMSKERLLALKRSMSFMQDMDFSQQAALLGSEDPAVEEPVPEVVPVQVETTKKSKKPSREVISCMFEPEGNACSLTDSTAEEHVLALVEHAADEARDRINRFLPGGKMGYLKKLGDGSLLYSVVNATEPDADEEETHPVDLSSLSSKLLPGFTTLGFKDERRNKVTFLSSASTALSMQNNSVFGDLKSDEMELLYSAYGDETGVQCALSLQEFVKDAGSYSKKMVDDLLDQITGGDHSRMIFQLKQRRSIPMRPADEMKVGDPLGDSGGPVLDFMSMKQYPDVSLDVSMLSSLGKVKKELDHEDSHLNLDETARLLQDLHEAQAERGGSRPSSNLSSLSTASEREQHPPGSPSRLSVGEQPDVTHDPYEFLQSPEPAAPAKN
Another data set can be described thus: IV PK, dog. It is filed as in vivo.
Data set [4] has as its target T1, BRD9. In words: In-vivo BRD9 degradation in the Yamato-SS xenograft model. The conditions noted are these: various concentrations and times, FIG. 12.
For the next data set, the target named is BRD9-E3 (Homo sapiens, UniProt Q96SW2+Q9H8M2). In words: BRD9-E3 dimerization. It is filed as biochemical. The following applies: not explained.
Chain of BRD9-E3 (Q96SW2 whole entry, one chain of several, the tested form may be a part): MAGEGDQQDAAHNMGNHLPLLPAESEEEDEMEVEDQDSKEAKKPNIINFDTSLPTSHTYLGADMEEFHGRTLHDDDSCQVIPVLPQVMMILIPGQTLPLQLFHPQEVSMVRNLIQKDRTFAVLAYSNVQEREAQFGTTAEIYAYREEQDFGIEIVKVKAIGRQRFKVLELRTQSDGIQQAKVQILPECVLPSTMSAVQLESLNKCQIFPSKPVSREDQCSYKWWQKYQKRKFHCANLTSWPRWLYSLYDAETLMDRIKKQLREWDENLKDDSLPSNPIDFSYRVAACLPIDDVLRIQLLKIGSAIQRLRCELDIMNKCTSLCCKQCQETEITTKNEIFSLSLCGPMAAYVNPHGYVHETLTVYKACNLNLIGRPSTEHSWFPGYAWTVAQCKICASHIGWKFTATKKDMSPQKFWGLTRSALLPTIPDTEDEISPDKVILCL
For data set [5], the target named is T1, BRD9. Kind of data set: Protein degradation by HiBiT luminescent readout (BRD9, BRD7, BRD4). Type of data set: cell-based. Details: endogenously expressing BRD9 with HiBiT fusion tag via CRISPR; host or cells: 293T.166 (BRD9-HiBiT), also expressing LgBiT ectopically. The conditions noted are these: FIG. 11. (In general: With HiBiT, luminescence reflects the tagged protein that the partner subunit can reach.)

For data set [6], the target named is T1, BRD9. In words: Western blot of endogenous BRD9 degradation in A204, HS-SY-II, SW982 and Yamato SS cells. Type of data set: cell-based. Details: endogenous in cells; host or cells: Yamato-SS (human synovial sarcoma). The conditions noted are these: SW982, Yamato SS cells, 6 hours, FIG. 15. The protocol: The top left represents the malignant human rhabdoid tumor (A204), top right represents the human synovial sarcoma (HS-SY-II), the bottom left represents human soft tissue sarcoma (SW982, BAF wildtype) and the bottom right represents synovial sarcoma (Yamato SS), all via western blot.
Cells were plated at 500,000 cells/well in a 6-well plate and allowed to adhere for 16 hours. Each cell line was treated with Compound 176 serially diluted in DMSO for 6 hours. Cell pellets were collected, lysed with RIPA lysis buffer in the presence of protease inhibitors, and run on a 4-12% acrylamide gel for 45 minutes at 150V. Proteins were transferred to a nitrocellulose membrane and incubated with antibodies against BRD9 (1:1000; Cell Signaling Technology, #71232) or Vinculin (1:10,000; EMD, 05-386) overnight with agitation at 4° C. Blots were thrice washed with tris-buffered saline+0.05% tween-20 and incubated with host-directed fluorescently-conjugated antibodies for 1 hour at room temperature. Blots were thrice washed and imaged on a LiCor Odyssey CLx.
(Immunoblotting shows a protein as a band on a membrane.)

Read-outs that look alike come from different tables or passages of the source.

Chain of CYP 2C9 (P11712 whole entry): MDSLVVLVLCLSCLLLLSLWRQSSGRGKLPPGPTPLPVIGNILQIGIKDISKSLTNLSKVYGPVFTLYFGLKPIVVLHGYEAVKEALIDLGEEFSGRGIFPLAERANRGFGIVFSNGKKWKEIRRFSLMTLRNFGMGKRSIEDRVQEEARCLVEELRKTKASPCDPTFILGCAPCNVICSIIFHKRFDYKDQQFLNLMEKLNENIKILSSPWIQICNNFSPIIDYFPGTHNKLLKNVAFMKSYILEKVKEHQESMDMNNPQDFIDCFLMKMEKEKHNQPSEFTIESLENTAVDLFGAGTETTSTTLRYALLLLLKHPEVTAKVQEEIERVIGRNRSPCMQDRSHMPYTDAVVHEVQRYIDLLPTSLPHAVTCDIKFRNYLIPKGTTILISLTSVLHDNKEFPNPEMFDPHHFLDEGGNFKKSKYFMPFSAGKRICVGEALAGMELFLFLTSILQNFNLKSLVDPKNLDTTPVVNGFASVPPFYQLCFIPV

In the case of `COc1cc(-c2cn(C)c(=O)c(C)c2C)cc(OC)c1CN1CCC(N2CCN(c3ccc(NC4CCC(=O)NC4=O)cc3F)CC2)C(F)(F)C1` (centres unmarked) [Compound 172, 3-[4-[4-[1-[[2,6-dimethoxy-4-(1,4,5-trimethyl-6-oxo-3-pyridyl)phenyl]methyl]-3,3-difluoro-4-piperidyl]piperazin-1-yl]-3-fluoro-anilino]piperidine-2,6-dione], affinity on BRD9 [1] was put at a Ki of 0.082 µM. For the same compound, the IC50 at CYP 1A2 is 30 µM; at CYP 2C19 (2C19, first of two values in brackets, read-out: CYP TDI 2C19, first value) it was above 50 µM; at CYP 2C19 (2C19, second of two values in brackets, read-out: CYP TDI 2C19, second value), 24 µM; against CYP 2C8 it was 30 µM; at CYP 2C9 it was 30 µM. For the same compound, the “in-vivo BRD9 degradation (normalized concentration)” value at BRD9 [2] and on BRD9 [4] was “dose dependent in-vivo BRD9 degradation” each time. Further, at BRD9 [3], the “BRD9 degradation rat cells (24 h), percent” value is 53%. Further, the DC50 at BRD9 [3] (read-out: BRD9 degradation rat cells (24 h), concentration) stood at 1 µM. In addition, in the data set “IV PK, dog” (dose-normalised), the “IV PK AUC(0-last)” value was 2343 (h*ng/mL)/(mg/kg). In addition, the “IV PK Cmax” value in the data set “IV PK, dog” (dose-normalised) was 767 [ng/mL]/(mg/kg). Besides, the clearance in “IV PK, dog” (in vivo, read-out: IV PK CL) is 6.2 mL/min/kg. The Vd in the data set “IV PK, dog” (in vivo, read-out: IV PK Vdss) was 4.36 L/kg. The half-life in “IV PK, dog” (in vivo, read-out: IV PK t1/2 (converted)) is 8.8 h. Besides, the “BRD9-E3 dimerization, first value” on BRD9-E3 (first of three values) worked out at 120 nM. On BRD9-E3 (second of three values), the “BRD9-E3 dimerization, second value” is listed as 461 nM. In addition, on BRD9-E3 (third of three values), the “BRD9-E3 dimerization, third value” is on record as 13%.
In the case of `COc1cc(-c2cn(C)c(=O)c(C)c2C)cc(OC)c1CN1CCC(N2CCN(c3ccc(NC4CCC(=O)NC4=O)cc3F)CC2)C(F)(F)C1` (single isomer, unassigned) [Compound 176, 3-[4-[4-[1-[[2,6-dimethoxy-4-(1,4,5-trimethyl-6-oxo-3-pyridyl)phenyl]methyl]-3,3-difluoro-4-piperidyl]piperazin-1-yl]-3-fluoro-anilino]piperidine-2,6-dione], the “protein degradation levels by HiBiT luminescent readout, BRD9 versus BRD7 and BRD4” value on BRD9 [5] was “selective degradation”. Also, the “degradation of alpha BRD9, western blot” value at BRD9 [6] was “dose dependent degradation of alpha BRD9”.

The Ki is a dissociation constant, usually derived from enzyme kinetics or from competition with a known ligand. The low end stands for tighter binding, the high end for weaker binding.
